Values joined by “and” are separate entries in the source; they are usually repeats but may differ in a detail not shown here. Equal values may be shown once. Inconclusive results and toxic doses are left out.
Test system: BDF1 mice, P388 leukemia (terephthalanilide-resistant), survival T/C
Assay: NCI In Vivo Anticancer Drug Screen. Data for tumor model P388 Leukemia resistant to A Terephthalanilide; NSC 38280 (intraperitoneal) in B6D2F1 (BDF1) mice
Settings: endpoint: median survival time, higher = longer survival
Experimental: The antitumor activity of compounds was measured in mice bearing transplantable tumors. Survival or tumor size were measured and the results are expressed as the measurement made in the treated group (T) divided by the measurement made in the vehicle treated control group (C). The tumor model used in this assay is P388 Leukemia resistant to A Terephthalanilide; NSC 38280 (intraperitoneal) in B6D2F1 (BDF1) mice

[1] = dose: 18.0 mg/kg/injection, schedule: Q01DX010 (ip), vehicle: saline
[2] = dose: 27.0 mg/kg/injection, schedule: Q01DX010 (ip), vehicle: saline
[3] = dose: 40.0 mg/kg/injection, schedule: Q01DX010 (ip), vehicle: saline
[4] = dose: 60.0 mg/kg/injection, schedule: Q01DX010 (ip), vehicle: saline
[5] = dose: 0.25 mg/kg/injection, schedule: Q01DX010 (ip), vehicle: saline
[6] = dose: 2.5 mg/kg/injection, schedule: Q01DX010 (ip), vehicle: saline
[7] = dose: 5.0 mg/kg/injection, schedule: Q01DX010 (ip), vehicle: saline
[8] = dose: 250.0 mg/kg/injection, schedule: Q01DX010 (ip), vehicle: saline
[9] = dose: 3.0 mg/kg/injection, schedule: Q01DX010 (ip), vehicle: saline
[10] = dose: 6.0 mg/kg/injection, schedule: Q01DX010 (ip), vehicle: saline
[11] = dose: 12.0 mg/kg/injection, schedule: Q01DX010 (ip), vehicle: saline
[12] = dose: 62.5 mg/kg/injection, schedule: Q01DX010 (ip), vehicle: saline
[13] = dose: 1.5 mg/kg/injection, schedule: Q01DX010 (ip), vehicle: saline
[14] = dose: 0.5 mg/kg/injection, schedule: Q01DX010 (ip), vehicle: saline
[15] = dose: 1.0 mg/kg/injection, schedule: Q01DX010 (ip), vehicle: saline

O=C(Nc1ccc(C2=NCCN2)cc1)c1ccc(NC(=O)c2ccc(C3=NCCN3)cc2)cc1
T/C [1]: 100 % of control
T/C [2]: 100 % of control
T/C [3]: 100 % of control
T/C [4]: 100 % of control

[I][Hg][CH2]C1COC([CH2][Hg][I])CO1 (stereo not given)
T/C (dose: 0.78 mg/kg/injection, schedule: Q01DX010 (ip), vehicle: saline): 91 % of control
T/C (dose: 1.56 mg/kg/injection, schedule: Q01DX010 (ip), vehicle: saline): 95 % of control
T/C (dose: 3.13 mg/kg/injection, schedule: Q01DX010 (ip), vehicle: saline): 91 % of control

CC[C@]1(O)C[C@H]2CN(CCc3c([nH]c4ccccc34)[C@@](C(=O)OC)(c3cc4c(cc3OC)N(C=O)[C@H]3[C@@](O)(C(=O)OC)[C@H](OC(C)=O)[C@]5(CC)C=CCN6CC[C@]43[C@@H]65)C2)C1
T/C (dose: 0.03 mg/kg/injection, schedule: Q01DX010 (ip), vehicle: saline): 105 % of control
T/C (dose: 0.03 mg/kg/injection, schedule: Q01DX Z (ip), vehicle: saline): 90 % of control and 100 % of control
T/C (dose: 0.06 mg/kg/injection, schedule: Q01DX010 (ip), vehicle: saline): 100 % of control
T/C (dose: 0.06 mg/kg/injection, schedule: Q01DX Z (ip), vehicle: saline): 95 % of control
T/C (dose: 0.12 mg/kg/injection, schedule: Q01DX010 (ip), vehicle: saline): 111 % of control
T/C (dose: 0.13 mg/kg/injection, schedule: Q01DX Z (ip), vehicle: saline): 100 % of control
T/C [5]: 94 % of control
T/C (dose: 0.25 mg/kg/injection, schedule: Q01DX Z (ip), vehicle: saline): 100 % of control
T/C (dose: 0.5 mg/kg/injection, schedule: Q01DX Z (ip), vehicle: saline): 95 % of control and 100 % of control

Oc1cc(CN(CCCl)CCCl)c(O)cc1CN(CCCl)CCCl
T/C (dose: 0.63 mg/kg/injection, schedule: Q01DX010 (ip), vehicle: saline): 116 % of control
T/C (dose: 1.25 mg/kg/injection, schedule: Q01DX010 (ip), vehicle: saline): 100 % of control and 116 % of control
T/C [6]: 100 % of control and 116 % of control
T/C [7]: 100 % of control and 116 % of control
T/C (dose: 10.0 mg/kg/injection, schedule: Q01DX010 (ip), vehicle: saline): 110 % of control

S=P(N1CCOCC1)(N1CC1)N1CC1
T/C [6]: 105 % of control and 111 % of control
T/C [7]: 94 % of control and 105 % of control

O=C(Nc1ccc(C2=NCCN2)cc1)c1cc(C(=O)Nc2ccc(C3=NCCN3)cc2)cc([N+](=O)[O-])c1
T/C (dose: 167.0 mg/kg/injection, schedule: Q01DX010 (ip), vehicle: saline): 94 % of control
T/C [8]: 100 % of control
T/C (dose: 375.0 mg/kg/injection, schedule: Q01DX010 (ip), vehicle: saline): 94 % of control
T/C (dose: 512.0 mg/kg/injection, schedule: Q01DX010 (ip), vehicle: saline): 94 % of control

CN(C)c1nc(N(C)C)nc(N(C)C)n1
T/C (dose: 18.8 mg/kg/injection, schedule: Q01DX010 (ip), vehicle: saline): 100 % of control and 116 % of control
T/C (dose: 37.5 mg/kg/injection, schedule: Q01DX010 (ip), vehicle: saline): 100 % of control and 105 % of control
T/C (dose: 75.0 mg/kg/injection, schedule: Q01DX010 (ip), vehicle: saline): 100 % of control and 111 % of control
T/C (dose: 150.0 mg/kg/injection, schedule: Q01DX010 (ip), vehicle: saline): 100 % of control and 105 % of control

N=C(N)c1ccc(Nc2ccc(C(=N)N)cc2)cc1
T/C [9]: 105 % of control
T/C [10]: 100 % of control
T/C [11]: 90 % of control

O=C(Nc1ccc(NC(=O)Nc2ccc(C3=NCCN3)cc2)cc1)Nc1ccc(C2=NCCN2)cc1
T/C (dose: 110.0 mg/kg/injection, schedule: Q01DX010 (ip), vehicle: saline): 111 % of control

Clc1ncnc2nc[nH]c12
T/C (dose: 7.5 mg/kg/injection, schedule: Q01DX010 (ip), vehicle: saline): 87 % of control
T/C (dose: 15.0 mg/kg/injection, schedule: Q01DX010 (ip), vehicle: saline): 87 % of control and 93 % of control
T/C (dose: 30.0 mg/kg/injection, schedule: Q01DX010 (ip), vehicle: saline): 87 % of control and 106 % of control
T/C [4]: 93 % of control

CC(=O)N(C)C
T/C [12]: 90 % of control and 111 % of control
T/C (dose: 125.0 mg/kg/injection, schedule: Q01DX010 (ip), vehicle: saline): 100 % of control
T/C [8]: 88 % of control
T/C (dose: 500.0 mg/kg/injection, schedule: Q01DX010 (ip), vehicle: saline): 95 % of control and 100 % of control

CCCSc1ncnc2nc[nH]c12
T/C (dose: 31.3 mg/kg/injection, schedule: Q01DX010 (ip), vehicle: saline): 118 % of control
T/C [12]: 112 % of control

Cn1c(N)nc2nc[nH]c2c1=S
T/C (dose: 20.0 mg/kg/injection, schedule: Q01DX010 (ip), vehicle: saline): 100 % of control
T/C [3]: 100 % of control
T/C (dose: 80.0 mg/kg/injection, schedule: Q01DX010 (ip), vehicle: saline): 95 % of control
T/C (dose: 160.0 mg/kg/injection, schedule: Q01DX010 (ip), vehicle: saline): 90 % of control

O=C(Nc1ccc(C2=NCCN2)cc1)c1ccc(C(=O)Nc2ccc(C3=NCCN3)cc2)c([N+](=O)[O-])c1
T/C [10]: 110 % of control and 122 % of control
T/C (dose: 8.0 mg/kg/injection, schedule: Q01DX010 (ip), vehicle: saline): 110 % of control and 122 % of control
T/C [11]: 122 % of control
T/C [1]: 88 % of control and 105 % of control

C[n+]1c2ccccc2nc2c(N)cc(N)cc21
T/C [11]: 100 % of control
T/C [1]: 100 % of control
T/C [2]: 91 % of control

O=P1(N(CCCl)CCCl)NCCCO1 (stereo not given)
T/C (dose: 11.3 mg/kg/injection, schedule: Q01DX005 (ip), vehicle: saline): 100 % of control and 109 % of control
T/C (dose: 11.3 mg/kg/injection, schedule: Q01DX010 (ip), vehicle: saline): 111 % of control
T/C (dose: 22.5 mg/kg/injection, schedule: Q01DX005 (ip), vehicle: saline): 118 % of control and 122 % of control
T/C (dose: 45.0 mg/kg/injection, schedule: Q01DX005 (ip), vehicle: saline): 154 % of control
T/C (dose: 45.0 mg/kg/injection, schedule: Q01DX010 (ip), vehicle: saline): 183 % of control
T/C (dose: 90.0 mg/kg/injection, schedule: Q01DX005 (ip), vehicle: saline): 272 % of control
T/C (dose: 90.0 mg/kg/injection, schedule: Q01DX010 (ip), vehicle: saline): 105 % of control
T/C (dose: 180.0 mg/kg/injection, schedule: Q01DX010 (ip), vehicle: saline): 88 % of control

Nc1ncnc2[nH]ncc12
T/C [13]: 90 % of control and 95 % of control
T/C [9]: 90 % of control
T/C [10]: 90 % of control and 95 % of control
T/C [11]: 90 % of control and 100 % of control

CN(C)c1ccc(/C=C\c2ccnc3ccccc23)cc1
T/C [13]: 91 % of control
T/C [11]: 91 % of control

Cc1cc(N(CCCl)CCCl)ccc1N=Nc1ccccc1C(=O)O
T/C [7]: 116 % of control
T/C [3]: 100 % of control

CS(=O)(=O)OCCN(CCOS(C)(=O)=O)c1ccc(N=O)cc1
T/C [14]: 100 % of control
T/C [15]: 109 % of control
T/C (dose: 2.0 mg/kg/injection, schedule: Q01DX010 (ip), vehicle: saline): 109 % of control and 113 % of control

CC1CN=C(c2ccc(NC(=O)c3cccc(C(=O)Nc4ccc(C5=NCC(C)N5)cc4)c3)cc2)N1 (stereo not given)
T/C [11]: 100 % of control
T/C [1]: 100 % of control
T/C [2]: 100 % of control
T/C [3]: 88 % of control

C1CN1c1nc(N2CC2)nc(N2CC2)n1
T/C (dose: 0.13 mg/kg/injection, schedule: Q01DX010 (ip), vehicle: saline): 94 % of control and 100 % of control
T/C [5]: 105 % of control and 116 % of control
T/C [14]: 116 % of control
T/C [15]: 111 % of control

C[C@]12C=CC(=O)C=C1CC[C@@H]1[C@@H]2C(=O)C[C@@]2(C)[C@H]1CC[C@]2(O)C(=O)CO
T/C (dose: 0.12 mg/kg/injection, schedule: Q01DX Z (sc), vehicle: steriod suspending solution): 100 % of control
T/C (dose: 12.5 mg/kg/injection, schedule: Q01DX Z (sc), vehicle: steriod suspending solution): 104 % of control
T/C (dose: 25.0 mg/kg/injection, schedule: Q01DX010 (sc), vehicle: steriod suspending solution): 105 % of control
T/C (dose: 25.0 mg/kg/injection, schedule: Q01DX Z (sc), vehicle: steriod suspending solution): 100 % of control and 109 % of control
T/C (dose: 50.0 mg/kg/injection, schedule: Q01DX Z (sc), vehicle: steriod suspending solution): 100 % of control
T/C (dose: 100.0 mg/kg/injection, schedule: Q01DX010 (sc), vehicle: steriod suspending solution): 88 % of control
T/C (dose: 200.0 mg/kg/injection, schedule: Q01DX010 (sc), vehicle: steriod suspending solution): 88 % of control

Source: PubChem BioAssay AID338 (DTP/NCI, 2004)
